{"source": "PubChem BioAssay (NCI)", "assay_in_all_cases": "DTP human tumour cell line panel, 48 h", "key": {"HS 578T breast": {"system": "HS 578T breast"}, "HCT-116 colon": {"system": "HCT-116 colon"}, "SF-268 CNS": {"system": "SF-268 CNS"}, "SNB-19 CNS": {"system": "SNB-19 CNS"}, "KM12 colon": {"system": "KM12 colon"}, "HOP-92 NSCLC": {"system": "HOP-92 NSCLC"}, "RPMI-8226 leukemia": {"system": "RPMI-8226 leukemia"}, "SK-OV-3 ovarian": {"system": "SK-OV-3 ovarian"}, "A549 NSCLC": {"system": "A549 NSCLC"}, "UO-31 renal": {"system": "UO-31 renal"}, "PC-3 prostate": {"system": "PC-3 prostate"}, "UACC-257 melanoma": {"system": "UACC-257 melanoma"}, "CCRF-CEM leukemia": {"system": "CCRF-CEM leukemia"}, "MDA-MB-435": {"system": "MDA-MB-435"}, "NCI-H522 lung": {"system": "NCI-H522 lung"}, "COLO 205 colon": {"system": "COLO 205 colon"}, "T-47D breast": {"system": "T-47D breast"}, "OVCAR-8 ovarian": {"system": "OVCAR-8 ovarian"}, "HCT-15 colon": {"system": "HCT-15 colon"}, "MOLT-4 leukemia": {"system": "MOLT-4 leukemia"}, "ACHN renal": {"system": "ACHN renal"}, "OVCAR-5 ovarian": {"system": "OVCAR-5 ovarian"}, "LOX IMVI melanoma": {"system": "LOX IMVI melanoma"}, "SK-MEL-2 melanoma": {"system": "SK-MEL-2 melanoma"}, "HOP-62 NSCLC": {"system": "HOP-62 NSCLC"}, "U251 CNS": {"system": "U251 CNS"}, "NCI/ADR-RES ovarian": {"system": "NCI/ADR-RES ovarian"}, "DU-145 prostate": {"system": "DU-145 prostate"}, "HL-60(TB) leukemia": {"system": "HL-60(TB) leukemia"}, "SR leukemia": {"system": "SR leukemia"}, "SF-295 CNS": {"system": "SF-295 CNS"}, "SK-MEL-5 melanoma": {"system": "SK-MEL-5 melanoma"}, "MCF7 breast": {"system": "MCF7 breast"}, "SN12C renal": {"system": "SN12C renal"}, "SF-539 CNS": {"system": "SF-539 CNS"}, "UACC-62 melanoma": {"system": "UACC-62 melanoma"}, "OVCAR-4 ovarian": {"system": "OVCAR-4 ovarian"}, "M14 melanoma": {"system": "M14 melanoma"}, "EKVX NSCLC": {"system": "EKVX NSCLC"}, "OVCAR-3 ovarian": {"system": "OVCAR-3 ovarian"}, "K-562 leukemia": {"system": "K-562 leukemia"}, "MDA-N": {"system": "MDA-N"}, "MALME-3M melanoma": {"system": "MALME-3M melanoma"}, "BT-549 breast": {"system": "BT-549 breast"}, "NCI-H460 lung": {"system": "NCI-H460 lung"}, "CAKI-1 renal": {"system": "CAKI-1 renal"}, "HCC-2998 colon": {"system": "HCC-2998 colon"}, "786-0 renal": {"system": "786-0 renal"}, "A498 renal": {"system": "A498 renal"}, "IGROV1 ovarian": {"system": "IGROV1 ovarian"}, "HT29 colon": {"system": "HT29 colon"}, "NCI-H23 lung": {"system": "NCI-H23 lung"}, "SW-620 colon": {"system": "SW-620 colon"}, "NCI-H226 lung": {"system": "NCI-H226 lung"}, "TK-10 renal": {"system": "TK-10 renal"}, "RXF 393 renal": {"system": "RXF 393 renal"}}, "note": "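Following 48 hours of exposure in 96-well plates, responses at five concentrations were used to interpolate endpoints linearly. At the TGI there is no net growth.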", "data": [{"smiles": "CCOC(=O)CCC(C(=O)OCC)n1nc2ccc(Nc3c(C)[n+]([O-])c4ccc(Cl)cc4[n+]3[O-])cc2n1", "note": "(stereo unspecified)", "values": [{"measurement": "TGI", "setting": "HS 578T breast", "result": 58.3, "unit": "µM"}, {"measurement": "TGI", "setting": "HCT-116 colon", "result": 57.7, "unit": "µM"}, {"measurement": "TGI", "setting": "SF-268 CNS", "result": 36.3, "unit": "µM"}, {"measurement": "TGI", "setting": "SNB-19 CNS", "result": 95.9, "unit": "µM"}, {"measurement": "TGI", "setting": "KM12 colon", "result": "> 100", "unit": "µM"}, {"measurement": "TGI", "setting": "HOP-92 NSCLC", "result": 71.4, "unit": "µM"}, {"measurement": "TGI", "setting": "RPMI-8226 leukemia", "result": "> 100", "unit": "µM"}, {"measurement": "TGI", "setting": "SK-OV-3 ovarian", "result": 46.8, "unit": "µM"}, {"measurement": "TGI", "setting": "A549 NSCLC", "result": 45.8, "unit": "µM"}, {"measurement": "TGI", "setting": "UO-31 renal", "result": 35.6, "unit": "µM"}, {"measurement": "TGI", "setting": "PC-3 prostate", "result": "> 100", "unit": "µM"}, {"measurement": "TGI", "setting": "UACC-257 melanoma", "result": 70.8, "unit": "µM"}, {"measurement": "TGI", "setting": "CCRF-CEM leukemia", "result": "> 100", "unit": "µM"}, {"measurement": "TGI", "setting": "MDA-MB-435", "result": "> 100", "unit": "µM"}, {"measurement": "TGI", "setting": "NCI-H522 lung", "result": "> 100", "unit": "µM"}, {"measurement": "TGI", "setting": "COLO 205 colon", "result": "> 100", "unit": "µM"}, {"measurement": "TGI", "setting": "T-47D breast", "result": 55.2, "unit": "µM"}, {"measurement": "TGI", "setting": "OVCAR-8 ovarian", "result": 65.7, "unit": "µM"}, {"measurement": "TGI", "setting": "HCT-15 colon", "result": "> 100", "unit": "µM"}, {"measurement": "TGI", "setting": "MOLT-4 leukemia", "result": "> 100", "unit": "µM"}, {"measurement": "TGI", "setting": "ACHN renal", "result": 31.9, "unit": "µM"}, {"measurement": "TGI", "setting": "OVCAR-5 ovarian", "result": "> 100", "unit": "µM"}, {"measurement": "TGI", "setting": "LOX IMVI melanoma", "result": 30, "unit": "µM"}, {"measurement": "TGI", "setting": "SK-MEL-2 melanoma", "result": 61, "unit": "µM"}, {"measurement": "TGI", "setting": "HOP-62 NSCLC", "result": 40.4, "unit": "µM"}, {"measurement": "TGI", "setting": "U251 CNS", "result": 39.1, "unit": "µM"}, {"measurement": "TGI", "setting": "NCI/ADR-RES ovarian", "result": 48, "unit": "µM"}, {"measurement": "TGI", "setting": "DU-145 prostate", "result": 60.9, "unit": "µM"}, {"measurement": "TGI", "setting": "HL-60(TB) leukemia", "result": "> 100", "unit": "µM"}, {"measurement": "TGI", "setting": "SR leukemia", "result": "> 100", "unit": "µM"}, {"measurement": "TGI", "setting": "SF-295 CNS", "result": 39.1, "unit": "µM"}, {"measurement": "TGI", "setting": "SK-MEL-5 melanoma", "result": 76.2, "unit": "µM"}, {"measurement": "TGI", "setting": "MCF7 breast", "result": 65.8, "unit": "µM"}, {"measurement": "TGI", "setting": "SN12C renal", "result": 48.4, "unit": "µM"}, {"measurement": "TGI", "setting": "SF-539 CNS", "result": 43.9, "unit": "µM"}, {"measurement": "TGI", "setting": "UACC-62 melanoma", "result": "> 100", "unit": "µM"}, {"measurement": "TGI", "setting": "OVCAR-4 ovarian", "result": "> 100", "unit": "µM"}, {"measurement": "TGI", "setting": "M14 melanoma", "result": "> 100", "unit": "µM"}, {"measurement": "TGI", "setting": "EKVX NSCLC", "result": 41.1, "unit": "µM"}, {"measurement": "TGI", "setting": "OVCAR-3 ovarian", "result": "> 100", "unit": "µM"}, {"measurement": "TGI", "setting": "K-562 leukemia", "result": "> 100", "unit": "µM"}, {"measurement": "TGI", "setting": "MDA-N", "result": "> 100", "unit": "µM"}, {"measurement": "TGI", "setting": "MALME-3M melanoma", "result": "> 100", "unit": "µM"}, {"measurement": "TGI", "setting": "BT-549 breast", "result": "> 100", "unit": "µM"}, {"measurement": "TGI", "setting": "NCI-H460 lung", "result": 33.6, "unit": "µM"}, {"measurement": "TGI", "setting": "CAKI-1 renal", "result": "> 100", "unit": "µM"}, {"measurement": "TGI", "setting": "HCC-2998 colon", "result": 28, "unit": "µM"}, {"measurement": "TGI", "setting": "786-0 renal", "result": 33.8, "unit": "µM"}, {"measurement": "TGI", "setting": "A498 renal", "result": 56.3, "unit": "µM"}, {"measurement": "TGI", "setting": "IGROV1 ovarian", "result": "> 100", "unit": "µM"}, {"measurement": "TGI", "setting": "HT29 colon", "result": "> 100", "unit": "µM"}, {"measurement": "TGI", "setting": "NCI-H23 lung", "result": 53.4, "unit": "µM"}, {"measurement": "TGI", "setting": "SW-620 colon", "result": "> 100", "unit": "µM"}, {"measurement": "TGI", "setting": "NCI-H226 lung", "result": 51.5, "unit": "µM"}, {"measurement": "TGI", "setting": "TK-10 renal", "result": "> 100", "unit": "µM"}, {"measurement": "TGI", "setting": "RXF 393 renal", "result": 27.3, "unit": "µM"}]}]}
